The results in this text go back to patent publication US20240092846A1, “ENGINEERED CYCLOTIDES WITH POTENT BROAD ANTIMICROBIAL ACTIVITY” (priority 2022, published 2024).

Converted amounts (≈) assume the structure as drawn. Like-named read-outs stand apart in the source and are kept apart here. Positions of bridges follow the written chain, without caps; N, C: chain ends. Where only a bound is given, the exact number is not on record here.

Data set [1] relates to clinical isolates of methicillin-resistant S. aureus (MRSA). The note with it: MRSA clinical isolates, n=20. Here is the method:
(§1) Broad-spectrum antimicrobial activity was evaluated using the broth microdilution assays against two different pathogens from four different species of bacteria (P. aeruginosa, S. aureus, K. pneumoniae, and E. coli) to determine if the cyclotides retained its potent activity. Broth microdilution assays were utilized to determine the minimum inhibitory concentrations (MICs) of our cyclotides according to the CLSI (formerly NCCLS) guidelines modifications as described below (40). The assay utilized cation-adjusted Mueller-Hinton broth (CAMHB) (Becton, Dickinson and Company, Franklin Lakes, NJ) which was prepared according to the manufacturer's instructions. Cyclotide solutions were prepared as 10× solutions in 0.01% acetic acid. Cyclotide were serially diluted two-fold at concentrations ranging from 25-0.05 μM that contained CAMHB and 0.04% bovine serum albumin (BSA) in polypropylene microtiter plates (Corning, Corning, NY). All bacteria were incubated overnight at 37° C. at 200 rpm in CAMHB and bacterial inoculum was adjusted with additional CAMHB to 0.5 McFarland standard through spectrophotometry at 600 nm. […] Study strains included a total of 20 P. aeruginosa and 20 methicillin resistant S. aureus strains from patients with cystic fibrosis at the Keck Medical Center of the University of Southern California. […] Colistin sulphate (Sigma-Aldrich, St Louis, MO) was used as a reference antibiotic for P. aeruginosa and E. coli, while vancomycin hydrochloride and meropenem trihydrate were used as reference antibiotics for S. aureus and K. pneumoniae.

The test system of the next data set is K. pneumoniae. Conditions: CAMHB. How it is done:
as §1

A further data set has as its system P. aeruginosa. Conditions: CAMHB; for MIC against P. aeruginosa: summary over the tested strains. Here is the method: as §1
The next data set concerns E. coli. The note with it: CAMHB. Here is the method:
as §1

For another data set, the system named is S. aureus. The note with it: CAMHB. How it is done: as §1
Data set [2] is described as follows: Maximum tolerated dose (MTD) toxicology study. An excerpt: (§2) Colistin was used as a control antibiotic.[28] […] For this purpose, Applicant employed a P. aeruginosa bacterial peritonitis model.[29] This animal model is a well-established acute infection model and is commonly utilized as a common preclinical screening method for new antibiotics.[30] Peritonitis in Balb/c mice (n=10) was established by intraperitoneal injection of 1.5×10^7 colony forming units (CFU) per mouse of P. aeruginosa (Schroeter) Migula (ATCC 27853).
Maximum tolerated dose (MTD) toxicology Studies. The MTD was determined using two different endpoints: weight loss and clinical scoring. Clinical scores were evaluated through activity, appearance and body condition, similar to previously published literature (42). […] Any dose escalation that leads to moderate toxicity (clinical score of >2) was ceased and the dose prior served as the MTD. Mice were monitored every hour for 4 h after injection on the first day. After 24 h, mice were monitored twice daily for another two days until weight and clinical scores were returned to normal. Mice that met the criteria for moribund included a >20% weight loss and clinical score of >3 and were euthanized.

The next data set is described as follows: in vitro. How it is done: This was accomplished by incubating the corresponding peptides in human serum at 37° C. The quantitative analysis of undigested polypeptides was performed using liquid chromatography coupled with tandem mass spectrometry (LC-MS/MS). MCoTI-cyclotides present a very rigid structure,[24] which makes them extremely stable to proteolytic degradation.
Human serum stability. […]. Peptides were dissolved in water at 10 mg/mL concentration. 150 μg of peptides (15 μL) were mixed with 500 μL of human serum and incubated at 37° C. Samples (30 μL) were taken at various time intervals (0-120 h) and serum proteins were precipitated using 180 μL of acetonitrile containing 0.1% TFA. After centrifugation the pellet was dissolved in 8 M GdmCl and the supernatant was lyophilized and re-dissolved in 5% acetonitrile in water containing 0.1% formic acid. Both the supernatant and solubilized pellet fractions were analyzed by HPLC and LC-MS/MS. Each experiment was done in triplicate.

In data set [3] the test system is clinical isolates of P. aeruginosa. Conditions: clinical isolates, n=20. How it is done:
as §1

Data set [4] deals with P. aeruginosa (Schroeter) Migula (ATCC 27853). Put plainly: P. aeruginosa-induced peritonitis murine model. It is filed as in vivo, Balb/c mice. Set-up: reference not given here. Conditions: single i.p. dose 15 mg/kg, 7 days.
Source text: as §2
P. aeruginosa-induced peritonitis murine model. Eight to 10-week-old Balb/c mice (Jackson Laboratory, Bar Harbor, ME) were housed five in a cage with standard chow and water ad libitum. To establish the model, 1.5×10^7 CFU of log-phase P. aeruginosa ATCC 27853 was injected intraperitoneally. […] Mice were monitored for 7 days and/or euthanized if any mice presented signs of moribundity.

Where [5] appears, read: S. aureus BAA977, clindamycin resistant strain.
Where [6] appears, read: S. aureus HH35, methicillin resistant strain.
Where [7] appears, read: S. aureus USA300, methicillin resistant strain.
Where [8] appears, read: summary over the tested strains.

For `CN[C@H](CC(C)C)C(=O)N[C@H]1C(=O)N[C@@H](CC(N)=O)C(=O)N[C@H]2C(=O)N[C@H]3C(=O)N[C@H](C(=O)N[C@H](C(=O)O)c4cc(O)cc(O)c4-c4cc3ccc4O)[C@H](O)c3ccc(c(Cl)c3)Oc3cc2cc(c3O[C@@H]2O[C@H](CO)[C@@H](O)[C@H](O)[C@H]2O[C@H]2C[C@](C)(N)[C@H](O)[C@H](C)O2)Oc2ccc(cc2Cl)[C@H]1O` [Vancomycin, reference compound], the “S. aureus MICrange” value in data set [1] was 0.5 to 1.4 µM.

By MIC is commonly meant the smallest concentration in the dilution series that meets the test's criterion for growth inhibition. In the case of “cyclo[GGVCPKILQRCRRDSDCPGACICRGNGYCGSGSGRLCYCRRRFCVCVGR] (cyclo(GGVCPKILQRCRRDSDCPGACICRGNGYCGSGSGRLCYCRRRFCVCVGR); not fully specified; printed as cyclo[GGVCPKILQRCRRDSDCPGACICRGNGYCGSGSGRLCYCRRRFCVCVGR]; cysteine pairing not given here) [MCo-PG5]”, the minimal inhibitory concentration (MIC) with K. pneumoniae (K. pneumoniae BAA1705) came out at 6.2 µM; against K. pneumoniae (K. pneumoniae K6) it was 6.2 µM; against P. aeruginosa (P. aeruginosa PA27853), 3.1 µM; against P. aeruginosa (P. aeruginosa PAO1), 3.1 µM; against E. coli (E. coli DS377), 1.6 µM; against E. coli (E. coli K12), 1.6 µM. Further, the minimal inhibitory concentration (MIC) in the data set with S. aureus (S. aureus 25973), with S. aureus (setting [5]), in the data set with S. aureus (setting [6]) and in the data set with S. aureus (setting [7]) was 12.5 µM in each case.

What is called MTD is the largest dose that counted as tolerated. The half-life is how long it takes for the measured level to halve. Take `CC(C)C[C@H](NC(=O)[C@H](CCCNC(=N)N)NC(=O)CNC(=O)CNC(=O)[C@@H](N)CCCNC(=N)N)C(=O)N[C@H]1CSSC[C@@H](C(=O)N[C@H](C(=O)NCC(=O)N[C@@H](CCCNC(=N)N)C(N)=O)C(C)C)NC(=O)[C@H](C(C)C)NC(=O)[C@@H]2CSSC[C@H](NC(=O)[C@H](Cc3ccc(O)cc3)NC1=O)C(=O)N[C@@H](CCCNC(=N)N)C(=O)N[C@@H](CCCNC(=N)N)C(=O)N[C@@H](CCCNC(=N)N)C(=O)N[C@@H](Cc1ccccc1)C(=O)N2` [PG-1, reference compound]: the maximal tolerated dose (MTD) at 3 days in data set [2] (Balb/c, mouse, in vivo, ip) amounted to 5 mg/kg. Moreover, the “degradation in human serum within the first 24 h (in words)” value in the data set “in vitro” (37° C.) is given as “significant degradation”. In “in vitro” (human, human serum), this compound had a metabolised at 24 h, 0.29 mg/mL of about 55%. The half-life at 0.29 mg/mL in the data set “in vitro” (human, human serum, t1/2 in human serum, 37° C., LC-MS/MS) is 30 ± 3 h.

For the compound Colistin, in [3], the “P. aeruginosa MIC50” value is at most 0.2 µM, the “P. aeruginosa MIC90” value was 0.4 µM and the “P. aeruginosa MICrange” value was at most 0.2 to 0.4 µM. In addition, the “maximum tolerated dose (well tolerated intraperitoneal dose)” value in [2] (Balb/c mice, single i.p. dose, endpoints weight loss and clinical score) turned out to be 15 mg/kg. Moreover, the “hazard ratio [HR] (survival)” value in data set [4] (12.3 μmol/kg, as printed in legend of FIG. 4) worked out at 24.8. Also, the “hazard ratio [HR] (survival)” value in [4] worked out at 0.040.

Turning to `CC[C@H](C)[C@@H]1NC(=O)[C@@H]2CSSC[C@@H]3NC(=O)[C@H](C(C)C)NC(=O)CNC(=O)CNC(=O)CNC(=O)[C@H](CCCNC(=N)N)NC(=O)[C@H](CCCNC(=N)N)NC(=O)CNC(=O)[C@H](C(C)C)NC(=O)[C@@H]4CSSC[C@H](NC(=O)[C@H](CC(C)C)NC(=O)[C@H](CCCNC(=N)N)NC(=O)CNC(=O)CNC(=O)CNC(=O)[C@H](CO)NC(=O)CNC(=O)[C@H](CO)NC(=O)CNC(=O)[C@@H]5CSSC[C@H](NC(=O)[C@H](CC(=O)O)NC(=O)[C@H](CO)NC(=O)[C@H](CC(=O)O)NC(=O)[C@H](CCCNC(=N)N)NC(=O)[C@H](CCCNC(=N)N)NC(=O)[C@H](CSSC[C@H](NC1=O)C(=O)N[C@@H](CCCNC(=N)N)C(=O)NCC(=O)N[C@@H](CC(N)=O)C(=O)NCC(=O)N[C@@H](Cc1ccc(O)cc1)C(=O)N5)NC(=O)[C@H](CCCNC(=N)N)NC(=O)[C@H](CCC(N)=O)NC(=O)[C@H](CC(C)C)NC(=O)[C@H]([C@@H](C)CC)NC(=O)[C@H](CCCCN)NC(=O)[C@@H]1CCCN1C3=O)C(=O)N1CCC[C@H]1C(=O)NCC(=O)N[C@@H](C)C(=O)N2)C(=O)N[C@@H](Cc1ccc(O)cc1)C(=O)N[C@H]1CSSC[C@H](NC(=O)[C@H](Cc2ccccc2)NC(=O)[C@H](CCCNC(=N)N)NC(=O)[C@H](CCCNC(=N)N)NC(=O)[C@H](CCCNC(=N)N)NC1=O)C(=O)N[C@@H](C(C)C)C(=O)N4` [MCo-PG4], the minimal inhibitory concentration (MIC) against K. pneumoniae (K. pneumoniae BAA1705) is 12.5 µM (≈ 70.2 µg/mL); in the data set with K. pneumoniae (K. pneumoniae K6), 12.5 µM (≈ 70.2 µg/mL); in the data set on P. aeruginosa (P. aeruginosa PA27853) it was 1.6 µM (≈ 8.99 µg/mL); in the data set on E. coli (E. coli DS377), 1.6 µM (≈ 8.99 µg/mL); in the data set on E. coli (E. coli K12) it was 1.6 µM (≈ 8.99 µg/mL); against S. aureus (S. aureus 25973), 12.5 µM (≈ 70.2 µg/mL). Besides, the MIC in the data set on S. aureus (setting [5]), in the data set with S. aureus (setting [6]) and against S. aureus (setting [7]) was 12.5 µM (≈ 70.2 µg/mL) each time. Moreover, the “MIC against P. aeruginosa” value in the data set on P. aeruginosa was 1.6 µM (≈ 8.99 µg/mL).

“cyclo(GGVCPKILQRCRRDSDCPGACICRGNGYCGSGSGGCLCYCRRRFCVCVCRR) (disulfide 4-21, 11-23, 17-29, 36-49, 38-47, 40-45 (inferred); ring closure inferred) [MCo-PG3]”: the MIC is over 25 µM against K. pneumoniae (K. pneumoniae K6); 25 µM in the data set on P. aeruginosa (P. aeruginosa PA27853); over 25 µM against E. coli (E. coli K12); over 25 µM with S. aureus (S. aureus 25973); over 25 µM against S. aureus (setting [5]); over 25 µM against S. aureus (setting [6]). The “MIC against K. pneumoniae” value with K. pneumoniae (setting [8]) is reported as “above 25 μM”. For the same compound, in the data set with P. aeruginosa, the “MIC against P. aeruginosa” value was 25 µM. In the data set with E. coli (setting [8]), the “MIC against E. coli” value was “above 25 μM”. Besides, the “MIC against S. aureus” value against S. aureus (setting [8]) is listed as “above 25 μM”.
